In brackets after ≈: the same amount, converted by molar mass.
Columns and labels:
Format in all cases: cell-based
[1] = test system: Methicillin Resistant Staphylococcus aureus (ATCC-919); assay: MIC by agar dilution against methicillin-resistant Staphylococcus aureus; details: for MIC: ATCC 919 / MRSA
[2] = test system: Staphylococcus aureus (ATCC-849); assay: MIC by agar dilution against Staphylococcus aureus; details: for MIC: ATCC849
[3] = test system: Live Vaccine Strain of Francisella tularensis; assay: microbe, parasite or virus in culture

SMILES | MIC [1] | MIC [2] | MIC [3] | MIC MRSA [1] | MIC S.A. [2]
CCCCNSSNCCCC [VIII] | 32 µg/mL (≈ 154 µM) | 8 µg/mL (≈ 38.4 µM) | 4 µg/mL (≈ 19.2 µM) | – | –
CCCCOSSOCCCC [III] | 8 µg/mL (≈ 38 µM) | 0.25 µg/mL (≈ 1.19 µM) | 4 µg/mL (≈ 19 µM) | – | –
CCCNSSNCCC [VI] | 4 µg/mL (≈ 22.2 µM) | 8 µg/mL (≈ 44.4 µM) | 16 µg/mL (≈ 88.7 µM) | – | –
CCC(C)SSSSC(C)CC (stereo not drawn) [XIV] | 64 µg/mL (≈ 264 µM) | 32 µg/mL (≈ 132 µM) | 16 µg/mL (≈ 66 µM) | – | –
CCN(CC)SSN(CC)CC [XVII] | 2 µg/mL (≈ 9.6 µM) | 2 µg/mL (≈ 9.6 µM) | 16 µg/mL (≈ 76.8 µM) | – | –
CC(C)CN(CC(C)C)SSN(CC(C)C)CC(C)C [XX] | 16 µg/mL (≈ 49.9 µM) | 16 µg/mL (≈ 49.9 µM) | 1 µg/mL (≈ 3.12 µM) | – | –
C=CCN(CC=C)SSN(CC=C)CC=C [XIX] | 0.5 µg/mL (≈ 1.95 µM) | 1 µg/mL (≈ 3.9 µM) | 16 µg/mL (≈ 62.4 µM) | – | –
CC(C)OSSOC(C)C [II] | 0.5 µg/mL (≈ 2.74 µM) | 1 µg/mL (≈ 5.49 µM) | 4 µg/mL (≈ 21.9 µM) | – | –
CCCOSSOCCC [I] | 32 µg/mL (≈ 176 µM) | 32 µg/mL (≈ 176 µM) | 16 µg/mL (≈ 87.8 µM) | – | –
c1ccc(NSSNc2ccccc2)cc1 [X] | 4 µg/mL (≈ 16.1 µM) | 4 µg/mL (≈ 16.1 µM) | 0.5 µg/mL (≈ 2.01 µM) | – | –
CCN(SSN(C(C)C)C(C)C)C(C)C [XVIII] | 1 µg/mL (≈ 3.99 µM) | 2 µg/mL (≈ 7.98 µM) | 32 µg/mL (≈ 128 µM) | – | –
CCC(C)OSSOC(C)CC (stereo not drawn) [IV] | 8 µg/mL (≈ 38 µM) | 16 µg/mL (≈ 76.1 µM) | 16 µg/mL (≈ 76.1 µM) | – | –
CN(C)SSN(C)C [XVI] | 0.5 µg/mL (≈ 3.28 µM) | 0.25 µg/mL (≈ 1.64 µM) | 8 µg/mL (≈ 52.5 µM) | – | –
CCCSSSSCCC [XI] | 32 µg/mL (≈ 149 µM) | 32 µg/mL (≈ 149 µM) | 1 µg/mL (≈ 4.66 µM) | – | –
O=C(O)c1cn(C2CC2)c2cc(N3CCNCC3)c(F)cc2c1=O [Ciprofloxacin, reference compound] | – | – | 16 µg/mL (≈ 48.3 µM) | – | –
CCCCSSSSCCCC [XIII] | 32 µg/mL (≈ 132 µM) | 64 µg/mL (≈ 264 µM) | 4 µg/mL (≈ 16.5 µM) | – | –
c1ccc(SSSSc2ccccc2)cc1 [XV] | 8 µg/mL (≈ 28.3 µM) | 8 µg/mL (≈ 28.3 µM) | 2 µg/mL (≈ 7.08 µM) | – | –
CC(C)NSSNC(C)C [VII] | 32 µg/mL (≈ 177 µM) | 32 µg/mL (≈ 177 µM) | 2 µg/mL (≈ 11.1 µM) | – | –
CC1(C)S[C@@H]2[C@H](NC(=O)Cc3ccccc3)C(=O)N2[C@H]1C(=O)O [Penicillin G, reference compound] | – | – | – | 16 µg/mL (≈ 47.8 µM) | 0.125 µg/mL (≈ 0.374 µM)
CC(C)SSSSC(C)C [XII] | 32 µg/mL (≈ 149 µM) | 32 µg/mL (≈ 149 µM) | 8 µg/mL (≈ 37.3 µM) | – | –
c1ccc(OSSOc2ccccc2)cc1 [V] | 2 µg/mL (≈ 7.99 µM) | 2 µg/mL (≈ 7.99 µM) | 1 µg/mL (≈ 3.99 µM) | – | –
CCC(C)NSSNC(C)CC (stereo not drawn) [IX] | 16 µg/mL (≈ 76.8 µM) | 16 µg/mL (≈ 76.8 µM) | 8 µg/mL (≈ 38.4 µM) | – | –

From patent publication US10350177B2, “Antibacterial S-heterosubstituted disulfides” (priority 2007, dated 2019)
